# Results reported in patent publication US8791299B2, “Compounds for the inhibition of herpes viruses” (Universite Laval, priority 2009, dated 2014).
# Read-outs that look alike come from different tables or passages of the source.
# What was measured:
# [1] = system: HSV-1; experiment: Plaque reduction assay (PRA), HSV-1 in Vero cells; type: cell-based, herpes simplex 1; settings: for antiviral activity by PRA: wild-type HSV-1; for in vitro antiviral activity (concluding summary, words): HSV-1; for factor by which less active than ACV (IC50): representative wild-type HSV strains, PRA
# Method: (§1) Top leading compounds were purchased from Sigma-Aldrich or ChemBridge for in vitro testing. On the day of the assay, compounds were prepared in DMSO at a concentration of 10 mM. Stock solutions were then diluted in Eagle's minimal essential medium (MEM) to the appropriate concentrations. ACV, GCV and FOS (prepared in MEM) were used as comparators for susceptible and resistant recombinant viruses and clinical isolates.
# (§2) Antiviral activity of compounds 1 to 8 was first tested at two concentrations, i.e. 1 μM and 10 μM, along with currently-available first-line drugs (ACV for HSV/VZV and GCV for CMV). Then, 50% inhibitory concentration (IC50) values were determined for the top leading compounds in comparison with ACV, GCV and FOS using a standard plaque reduction assay (PRA). Briefly, Vero cells or HFFs seeded in 24-well plates were inoculated with 40 plaque forming units (PFUs) of recombinant viruses or clinical isolates. Infected cells were incubated with serial drug concentrations for appropriate periods of time. Cells were fixed and stained. The number of plaques was counted in each well and expressed in percentage of the PFUs in no-drug control wells. Recombinant and clinical viral strains were considered resistant to a drug if their IC50 values were at least 2.5 times greater than that of the representative wild-type strains.
# [2] = system: HSV-2; experiment: Plaque reduction assay (PRA), HSV-2 in Vero cells; type: cell-based, herpes simplex 2; settings: for antiviral activity by PRA: wild-type HSV-2; for in vitro antiviral activity (concluding summary, words): HSV-2; for factor by which less active than ACV (IC50): representative wild-type HSV strains, PRA
# Method: as §1, §2
# [3] = system: CMV; experiment: Plaque reduction assay (PRA), CMV in HFFs; type: cell-based, cytomegalovirus; settings: for antiviral activity by PRA: wild-type CMV isolate
# Method: as §1, §2
# [4] = system: VZV; experiment: Plaque reduction assay (PRA), VZV in HFFs; type: cell-based, varicella zoster virus; settings: for antiviral activity by PRA: ACV-resistant VZV strains; for in vitro antiviral activity (concluding summary, words): VZV
# Method: as §1, §2
# [5] = Parallel Artificial Membrane Permeability Assay (PAMPA); type: in vitro ADME; settings: for Papp at 5 h: 5 h incubation, n=4, read-out: apparent permeability coefficient (Papp)
# Method: Passive membrane permeability was determined using Parallel Artificial Membrane Permeability Assay (PAMPA). Initial concentrations of compounds 2 and 3 used for this assay were 37 and 2.5 respectively. Membrane area was 0.3 cm^2. After a 5 h incubation, fractions were taken on both sides of the membrane and compound concentrations were determined by LC-MS/MS. The apparent permeability coefficient (Papp) was calculated using the equation Papp=(dQ/dtAc0), where dQ/dt is the appearance rate of compound in the acceptor compartment, A is the surface area of the transwell membrane, and co is the initial concentration in the donor compartment.
# [6] = system: Human foreskin fibroblasts (HFFs); experiment: MTS cell proliferation (cytotoxicity) assay on HFFs; settings: for toxicity (CC50) compared with ACV, GCV and FOS: HFFs, MTS assay
# Method: (§3) Human foreskin fibroblasts (HFFs) and African green monkey kidney cells (Vero) were grown in MEM supplemented with 10% fetal bovine serum. Cells were maintained at 37° C. in a humidified 5% CO2 atmosphere. Vero cells and HFFs were used for propagation of viral strains and susceptibility assays for HSV-1/HSV-2 and VZV/CMV, respectively. Clinical strains H25 (HSV-1), HSV22 (HSV-2) as well as laboratory strains KOS(HSV-1), Ellen (VZV) and AD169 (CMV) were used as wild-type susceptible reference isolates. Clinical strains C119629 (HSV-1), C114093 (HSV-1), C80249 (HSV-1), L920062 (HSV-1), MS2 (HSV-2), C75134 (HSV-2), W-940012 (HSV-2), C72984 (HSV-2), D-900180 (HSV-2), M-890546 (HSV-2), P-920056 (HSV-2) and GB2000VZV (VZV) as well as laboratory strains Xbaf (CMV) and VQA3 (CMV) were used as drug (ACV/GCV/FOS)— resistant isolates. All clinical strains starting with the letter C originated from the Quebec City clinical virology laboratory.
# (§4) This assay is based on the use of solutions of a tetrazolium salt (3-(4,5-dimethylthiazol-2-yl)-5-(3-carboxymethoxyphenyl)-2-(4-sulphophenyl)-2H-tetrazolium, inner salt; MTS) and an electron coupling reagent (phenazine methosulfate; PMS). The tetrazolium salt is reduced by living cells to yield a formazan product that can be assayed colorimetrically. Briefly, HFFs and Vero cells were seeded in 96-well plates. After 24 h, media was aspirated and 100 μl of compounds diluted in MEM at concentrations up to 100 μM were added to wells in quaduplicate. After incubation at 37° C. for 3 days, 10 μl of a solution of MTS and PMS were added to each well. The plates were incubated at 37° C. for 2 h. The absorbance of the supernatant was read at a wavelength of 492 nm to measure cell viability compared to no-drug control wells. The drug concentration was plotted against the optical density of each sample and cellular toxicity (CC50) was calculated using GraphPad Prism version 5.0 (GraphPad Inc., La Jolla, Calif., USA).
# [7] = system: Vero cells; experiment: MTS cell proliferation (cytotoxicity) assay on Vero cells; settings: for therapeutic index (CC50/IC50): CC50 Vero cells, IC50 of the HSV-1 reference strain (H25); for toxicity (CC50) compared with ACV, GCV and FOS: Vero cells, MTS assay
# Method: as §3, §4
# [8] = Microsomal stability in rat liver microsomes; type: in vitro ADME; settings: Sprague-Dawley; for half-life at 2 μM: rat liver microsomes 1 mg/ml, 2 μM compound, 37° C., NADPH, read-out: Half-life (t1/2); for CLint scaled at 2 μM: rat liver microsomes
# Method: Sprague-Dawley rat liver microsomes (concentration 1 mg/ml) were incubated at 37° C. with 2 μM of compounds 2 or 3 in PBS containing 5 mM MgCl2 and 1 mM NADPH. The antihypertensive drug reserpine was used as a reference compound. Aliquots of 50 μl were withdrawn at different time intervals and placed in 96-well plates containing 50 μL of acetonitrile on ice. Samples were then mixed and centrifuged at 3000 rpm and 10 μL were injected in a liquid chromatography system (Agilent 1100 Binary Pumps). The aliquots from liquid chromatography were subjected to mass spectrometry analysis on SCIEX API4000 with TurboIonSpray ionization source to determine the remaining percentage of the parent compound. Intrinsic clearance (Clint) estimates were determined using the rate of parent compound disappearance. The slope (-k) was determined by linear regression analysis from the linear portion of the natural logarithm of the test compound concentration versus time plot. The […] (t1/2) was calculated according to k=ln 2/t1/2. The microsomal Clint can be derived from the equation Clint=kVfu (mL/min/mg protein) where fu is the unbound fraction and V is the volume of the incubation expressed in milliliters per mg of microsomal protein. As fu is not known for the tested compounds, the calculation was performed with fu=1 (V). The Clint was also extrapolated to the whole liver protein.
# [9] = fu=1, read-out: intrinsic clearance (Clint) extrapolated to whole rat liver
compound,measurement,setting,value
3-chloro-N-(2-{2-[(E)-2-(1-hydroxynaphthalen-2-yl)ethenyl]hydrazinyl}-2-oxoethyl)benzamide [Compound C3-2],antiviral activity by PRA,[1],not active
same,antiviral activity by PRA,[2],not active
same,antiviral activity by PRA,[3],not active
same,antiviral activity by PRA,[4],not active
"O=C(CNC(=O)c1cccc2ccccc12)N/N=C/c1ccccc1O [Compound 2, N-{2-[(2E)-2-(2-hydroxybenzylidene)hydrazinyl]-2-oxoethyl}naphthalene-1-carboxamide]",permeability class,[5],high (high (Papp>10))
same,Papp at 5 h,[5],11.3 ± 1.17 ×10⁻⁶ cm/s
same,IC50 value increases compared to the representative wild-type strains,"[1]; ACV- and/or FOS-resistant HSV-1 strains, Vero cells",0.7 to 1.7 fold
same,"in vitro antiviral activity (concluding summary, words)",[1],highly active
same,factor by which less active than ACV (IC50),[1],2 to 3 fold
same,"toxicity (CC50) compared with ACV, GCV and FOS",[6],somewhat more toxic
same,therapeutic index (CC50/IC50),[7],19.3
same,"toxicity (CC50) compared with ACV, GCV and FOS",[7],somewhat more toxic
same,half-life at 2 μM,[8],33 min
same,CLint scaled at 2 μM,[8]; [9],37 mL/min/kg
same,IC50 value increases compared to the representative wild-type strains,"[2]; ACV- and/or FOS-resistant HSV-2 strains, Vero cells",0.7 to 1.7 fold
same,"in vitro antiviral activity (concluding summary, words)",[2],highly active
same,factor by which less active than ACV (IC50),[2],2 to 3 fold
same,"in vitro antiviral activity (concluding summary, words)",[4],highly active
same,factor by which less active than ACV (IC50),"[4]; representative wild-type VZV strain, PRA",2 to 3 fold
"C=CCc1cccc(/C=N/NC(=O)CNC(=O)c2cccc(Cl)c2)c1O [Compound 3, 3-chloro-N-(2-{(2E)-2-[2-hydroxy-3-(prop-2-en-1-yl)benzylidene]hydrazinyl}-2-oxoethyl)benzamide]",permeability class,[5],intermediate (intermediate (1<Papp<10))
same,Papp at 5 h,[5],3.4 ± 0.45 ×10⁻⁶ cm/s
same,therapeutic index (CC50/IC50),"[6]; CC50 HFFs, IC50 of the CMV reference strain (AD169)",6.6
same,"toxicity (CC50) compared with ACV, GCV and FOS",[6],somewhat more toxic
same,"toxicity (CC50) compared with ACV, GCV and FOS",[7],somewhat more toxic
same,half-life at 2 μM,[8],22 min
same,CLint scaled at 2 μM,[8]; [9],62 mL/min/kg
same,"in vitro antiviral activity (concluding summary, words)",[3]; CMV,highly active
same,factor by which less active than GCV (IC50),"[3]; CMV reference strain, PRA",2 fold
same,IC50 value increases compared to the representative wild-type strain,"[3]; GCV- and/or FOS-resistant CMV strains, HFF cells",1 to 2 fold
"COc1ccc(O)c(C=NNC(=O)CNC(=O)c2cccc3ccccc23)c1 [Compound 9, N-(2-(2-(2-hydroxy-5-methoxybenzylidene)hydrazino)-2-oxoethyl)-1-naphthamide]",factor by which less active than ACV (IC50),[1],3 to 4 fold
same,factor by which less active than ACV (IC50),[2],3 to 4 fold
"O=C(CNC(=O)c1cccc2ccccc12)N/N=C/c1c(O)cccc1O [Compound C2.05, N-{2-[(2E)-2-(2,6-dihydroxybenzylidene)hydrazinyl]-2-oxoethyl}naphthalene-1-carboxamide]",antiviral activity by PRA,[1],active against wild-type HSV-2 only
same,antiviral activity by PRA,[2],active
same,antiviral activity by PRA,[3],not active
same,antiviral activity by PRA,[4],active against wild-type HSV-2 only
"O=C(CNC(=O)c1cccc2ccccc12)N/N=C/c1ncccc1O [Compound C2.11, N-(2-{(2E)-2-[(3-hydroxypyridin-2-yl)methylidene)hydrazinyl}-2-oxoethyl)naphthalene-1-carboxamide]",antiviral activity by PRA,[1],not against HSV-1
same,antiviral activity by PRA,[2],active
same,antiviral activity by PRA,[3],not active
same,antiviral activity by PRA,[4],active
"O=C(CNC(=O)c1cccc2ccccc12)N/N=C/c1ccc(F)cc1O [Compound C2.20, N-{2-[(2E)-2-(4-fluoro-2-hydroxybenzylidene)hydrazinyl]-2-oxoethyl}naphthalene-1-carboxamide]","in vitro antiviral activity (concluding summary, words)",[1],retained excellent activity
same,antiviral activity by PRA,[1],as active
same,therapeutic index (CC50/IC50),[7],9.6
same,"in vitro antiviral activity (concluding summary, words)",[2],retained excellent activity
same,antiviral activity by PRA,[2],as active
same,antiviral activity by PRA,[3],not active
same,antiviral activity by PRA,[4],as active
same,"in vitro antiviral activity (concluding summary, words)",[4],retained excellent activity
"Cc1cccc(/C=C/NNC(=O)CNC(=O)c2cccc(Cl)c2)c1O [Compound C3-1, 3-chloro-N-(2-{2-[(E)-2-(2-hydroxy-3-methylphenyl)ethenyl]hydrazinyl}-2-oxoethyl)benzamide]",antiviral activity by PRA,[1],not active
same,antiviral activity by PRA,[2],not active
same,antiviral activity by PRA,[3],not active
same,antiviral activity by PRA,[4],not active
"COC(=O)[C@H]1[C@H]2C[C@@H]3c4[nH]c5cc(OC)ccc5c4CCN3C[C@H]2C[C@@H](OC(=O)c2cc(OC)c(OC)c(OC)c2)[C@@H]1OC [reserpine, reference compound]",half-life at 2 μM,[8],43 min
same,CLint scaled at 2 μM,"[8]; reference compound, read-out: intrinsic clearance (Clint)",28 mL/min/kg
